The values below come from patent US20220009920A1 (GB005, Inc., priority 2020, published 2022).

Common to all, as to assay: Large panel kinase profiling
Holding throughout (format): biochemical
Common to all, as to conditions: 1 μM test article, 1 mM ATP

The target in assay [1] is T1, CLK1 (Homo sapiens, UniProt P49759).
T1 construct: AssayQuant Technologies, Inc. (service laboratory)
The gist of the method: (§1)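 Steps: combine kinase, CSox-Sensor substrate, 1 mM ATP and 1 μM compound; seal and incubate at 30° C.; read top fluorescence kinetically each minute, Ex 360 nm/Em 485 nm.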

Assay [2] deals with T2, CSNK2A2/CK2A2 (Homo sapiens, UniProt P19784).
T2 construct: AssayQuant Technologies, Inc. (service laboratory)
A digest of the protocol: as §1

The target in assay [3] is T3, FLT1 (Homo sapiens, UniProt P17948).
T3 construct: AssayQuant Technologies, Inc. (service provider)
A digest of the protocol: as §1

The target in assay [4] is T4, FYNA (Homo sapiens, UniProt P06241).
T4 construct: AssayQuant Technologies, Inc. (service provider)
The gist of the method:
as §1

The target of assay [5] is T5, GSK3A (Homo sapiens, UniProt P49840).
T5 construct: AssayQuant Technologies, Inc. (service provider)
The gist of the method:
as §1

In assay [6] the target is T6, MARK3 (Homo sapiens, UniProt P27448).
T6 construct: AssayQuant Technologies, Inc. (assay service)
The gist of the method: as §1

Assay [7] has as its target T7, PRKD1 (Homo sapiens, UniProt Q15139).
T7 sequence (Q15139 1-912): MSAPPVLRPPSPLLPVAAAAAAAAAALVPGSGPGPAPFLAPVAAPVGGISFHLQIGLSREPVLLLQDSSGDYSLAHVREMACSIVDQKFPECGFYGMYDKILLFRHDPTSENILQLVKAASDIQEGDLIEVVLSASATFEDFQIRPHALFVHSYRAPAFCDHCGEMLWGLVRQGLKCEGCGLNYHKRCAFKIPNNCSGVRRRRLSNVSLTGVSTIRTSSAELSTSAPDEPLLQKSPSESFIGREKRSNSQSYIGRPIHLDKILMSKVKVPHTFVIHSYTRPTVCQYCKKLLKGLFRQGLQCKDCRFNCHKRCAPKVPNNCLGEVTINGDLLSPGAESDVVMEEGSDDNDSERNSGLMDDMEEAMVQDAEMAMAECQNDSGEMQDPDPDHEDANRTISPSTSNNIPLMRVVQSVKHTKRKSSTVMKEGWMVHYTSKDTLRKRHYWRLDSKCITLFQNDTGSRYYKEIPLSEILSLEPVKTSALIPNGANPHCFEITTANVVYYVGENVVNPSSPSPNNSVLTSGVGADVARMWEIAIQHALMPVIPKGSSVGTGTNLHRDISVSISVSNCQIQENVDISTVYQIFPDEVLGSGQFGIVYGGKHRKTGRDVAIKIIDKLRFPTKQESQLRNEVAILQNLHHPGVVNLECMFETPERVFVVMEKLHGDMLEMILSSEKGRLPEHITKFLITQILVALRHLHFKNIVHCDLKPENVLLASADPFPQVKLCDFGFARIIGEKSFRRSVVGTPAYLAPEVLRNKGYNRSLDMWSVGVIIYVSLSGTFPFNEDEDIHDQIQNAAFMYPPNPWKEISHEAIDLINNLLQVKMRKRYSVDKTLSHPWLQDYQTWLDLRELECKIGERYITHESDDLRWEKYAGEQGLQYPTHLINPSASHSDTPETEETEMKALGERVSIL
The gist of the method:
as §1

Assay [8] concerns the target RPS6KA1/RSK1 (Homo sapiens, UniProt Q15418). A digest of the protocol: as §1
Assay [9] has as its target T8, STK11/LKB1 (Homo sapiens, UniProt Q15831).
T8 construct: AssayQuant Technologies, Inc. (contract assay)
T8 sequence (Q15831 1-433): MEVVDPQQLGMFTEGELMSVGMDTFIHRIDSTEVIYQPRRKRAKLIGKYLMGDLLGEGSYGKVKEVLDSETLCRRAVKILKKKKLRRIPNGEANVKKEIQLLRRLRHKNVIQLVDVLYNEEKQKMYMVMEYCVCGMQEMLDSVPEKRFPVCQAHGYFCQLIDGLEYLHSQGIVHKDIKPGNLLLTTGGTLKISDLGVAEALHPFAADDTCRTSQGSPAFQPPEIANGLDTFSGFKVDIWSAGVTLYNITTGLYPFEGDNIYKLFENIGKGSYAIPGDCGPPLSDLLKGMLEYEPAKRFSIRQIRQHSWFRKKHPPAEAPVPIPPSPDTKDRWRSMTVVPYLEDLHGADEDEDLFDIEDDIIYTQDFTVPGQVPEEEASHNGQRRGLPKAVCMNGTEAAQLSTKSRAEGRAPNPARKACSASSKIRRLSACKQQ
T8 sequence (Q7RTN6 1-431 partner): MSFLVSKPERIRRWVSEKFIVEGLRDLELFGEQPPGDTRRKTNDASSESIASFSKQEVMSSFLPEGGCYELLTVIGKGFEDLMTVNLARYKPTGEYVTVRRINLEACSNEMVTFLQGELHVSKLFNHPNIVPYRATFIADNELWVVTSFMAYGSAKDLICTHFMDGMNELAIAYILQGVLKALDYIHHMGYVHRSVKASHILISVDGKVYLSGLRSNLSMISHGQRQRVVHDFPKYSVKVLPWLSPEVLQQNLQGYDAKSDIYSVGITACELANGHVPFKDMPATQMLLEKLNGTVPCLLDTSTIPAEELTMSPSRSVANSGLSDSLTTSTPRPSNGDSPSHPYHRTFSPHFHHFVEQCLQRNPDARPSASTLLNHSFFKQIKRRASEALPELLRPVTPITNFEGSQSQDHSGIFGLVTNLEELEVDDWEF
T8 sequence (Q9Y376 1-341 partner): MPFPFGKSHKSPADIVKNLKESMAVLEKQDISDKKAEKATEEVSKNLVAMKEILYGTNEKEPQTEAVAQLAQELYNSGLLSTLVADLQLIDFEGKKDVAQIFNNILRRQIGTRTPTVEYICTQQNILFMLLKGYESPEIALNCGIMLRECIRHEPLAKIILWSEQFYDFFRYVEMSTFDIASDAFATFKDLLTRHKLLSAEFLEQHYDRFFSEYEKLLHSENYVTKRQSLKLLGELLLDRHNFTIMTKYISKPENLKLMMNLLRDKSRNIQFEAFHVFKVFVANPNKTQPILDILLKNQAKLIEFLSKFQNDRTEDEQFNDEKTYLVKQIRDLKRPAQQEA
The gist of the method: as §1

T5 sequence (P49840 whole entry, species assumed): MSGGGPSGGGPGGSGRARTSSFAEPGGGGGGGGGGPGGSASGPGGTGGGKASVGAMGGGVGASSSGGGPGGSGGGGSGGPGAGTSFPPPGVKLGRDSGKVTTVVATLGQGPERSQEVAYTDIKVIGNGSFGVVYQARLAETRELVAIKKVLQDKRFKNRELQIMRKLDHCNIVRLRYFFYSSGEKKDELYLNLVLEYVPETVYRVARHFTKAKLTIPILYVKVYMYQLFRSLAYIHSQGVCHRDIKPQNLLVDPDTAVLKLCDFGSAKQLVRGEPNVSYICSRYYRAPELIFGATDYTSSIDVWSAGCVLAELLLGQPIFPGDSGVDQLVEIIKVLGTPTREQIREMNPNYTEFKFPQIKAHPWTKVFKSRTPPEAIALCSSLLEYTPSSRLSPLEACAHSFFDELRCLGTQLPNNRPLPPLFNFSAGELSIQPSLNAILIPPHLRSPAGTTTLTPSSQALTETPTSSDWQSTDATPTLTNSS
T2 sequence (P19784 whole entry): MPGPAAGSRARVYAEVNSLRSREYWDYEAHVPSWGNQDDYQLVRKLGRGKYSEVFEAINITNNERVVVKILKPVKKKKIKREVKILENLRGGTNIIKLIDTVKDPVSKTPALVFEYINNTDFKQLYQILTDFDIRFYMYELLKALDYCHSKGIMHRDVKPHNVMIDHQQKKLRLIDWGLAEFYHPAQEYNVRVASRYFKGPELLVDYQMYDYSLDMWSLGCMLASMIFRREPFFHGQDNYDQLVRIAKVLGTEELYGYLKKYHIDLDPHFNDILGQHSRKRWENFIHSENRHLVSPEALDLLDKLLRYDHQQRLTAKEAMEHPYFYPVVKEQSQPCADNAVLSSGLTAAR
T1 sequence (P49759 whole entry): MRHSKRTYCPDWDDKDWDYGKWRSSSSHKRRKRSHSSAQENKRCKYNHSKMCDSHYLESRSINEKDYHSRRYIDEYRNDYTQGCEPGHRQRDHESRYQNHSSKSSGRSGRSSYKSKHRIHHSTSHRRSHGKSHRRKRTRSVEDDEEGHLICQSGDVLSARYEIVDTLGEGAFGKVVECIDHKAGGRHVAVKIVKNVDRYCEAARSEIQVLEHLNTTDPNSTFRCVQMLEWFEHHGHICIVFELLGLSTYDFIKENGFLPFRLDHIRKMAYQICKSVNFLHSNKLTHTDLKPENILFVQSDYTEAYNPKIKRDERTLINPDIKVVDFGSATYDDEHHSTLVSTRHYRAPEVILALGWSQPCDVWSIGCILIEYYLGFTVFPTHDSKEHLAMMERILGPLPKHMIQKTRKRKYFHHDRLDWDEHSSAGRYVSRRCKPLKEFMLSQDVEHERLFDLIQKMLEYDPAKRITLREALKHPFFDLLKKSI
Sequence of RPS6KA1/RSK1 (Q15418 whole entry): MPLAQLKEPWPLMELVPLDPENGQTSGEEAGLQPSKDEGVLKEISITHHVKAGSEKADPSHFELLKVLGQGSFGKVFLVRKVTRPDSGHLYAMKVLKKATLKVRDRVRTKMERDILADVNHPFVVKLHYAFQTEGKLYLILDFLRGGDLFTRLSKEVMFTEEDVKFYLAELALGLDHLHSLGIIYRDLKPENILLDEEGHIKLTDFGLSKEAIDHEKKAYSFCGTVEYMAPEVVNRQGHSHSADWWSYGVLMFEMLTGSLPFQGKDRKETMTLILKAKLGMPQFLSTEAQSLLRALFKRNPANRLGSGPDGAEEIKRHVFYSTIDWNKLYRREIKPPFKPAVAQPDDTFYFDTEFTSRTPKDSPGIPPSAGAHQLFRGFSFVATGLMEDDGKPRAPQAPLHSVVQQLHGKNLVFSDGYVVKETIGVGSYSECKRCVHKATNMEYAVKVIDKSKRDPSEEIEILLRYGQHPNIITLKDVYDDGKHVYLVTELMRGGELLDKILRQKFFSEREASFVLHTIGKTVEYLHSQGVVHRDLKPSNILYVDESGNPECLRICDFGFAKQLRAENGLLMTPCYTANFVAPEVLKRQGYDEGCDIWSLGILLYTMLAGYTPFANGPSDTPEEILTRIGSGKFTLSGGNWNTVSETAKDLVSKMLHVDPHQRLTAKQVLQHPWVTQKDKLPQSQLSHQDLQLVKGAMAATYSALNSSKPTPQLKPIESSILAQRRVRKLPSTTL
T3 sequence (P17948 27-1338, species assumed): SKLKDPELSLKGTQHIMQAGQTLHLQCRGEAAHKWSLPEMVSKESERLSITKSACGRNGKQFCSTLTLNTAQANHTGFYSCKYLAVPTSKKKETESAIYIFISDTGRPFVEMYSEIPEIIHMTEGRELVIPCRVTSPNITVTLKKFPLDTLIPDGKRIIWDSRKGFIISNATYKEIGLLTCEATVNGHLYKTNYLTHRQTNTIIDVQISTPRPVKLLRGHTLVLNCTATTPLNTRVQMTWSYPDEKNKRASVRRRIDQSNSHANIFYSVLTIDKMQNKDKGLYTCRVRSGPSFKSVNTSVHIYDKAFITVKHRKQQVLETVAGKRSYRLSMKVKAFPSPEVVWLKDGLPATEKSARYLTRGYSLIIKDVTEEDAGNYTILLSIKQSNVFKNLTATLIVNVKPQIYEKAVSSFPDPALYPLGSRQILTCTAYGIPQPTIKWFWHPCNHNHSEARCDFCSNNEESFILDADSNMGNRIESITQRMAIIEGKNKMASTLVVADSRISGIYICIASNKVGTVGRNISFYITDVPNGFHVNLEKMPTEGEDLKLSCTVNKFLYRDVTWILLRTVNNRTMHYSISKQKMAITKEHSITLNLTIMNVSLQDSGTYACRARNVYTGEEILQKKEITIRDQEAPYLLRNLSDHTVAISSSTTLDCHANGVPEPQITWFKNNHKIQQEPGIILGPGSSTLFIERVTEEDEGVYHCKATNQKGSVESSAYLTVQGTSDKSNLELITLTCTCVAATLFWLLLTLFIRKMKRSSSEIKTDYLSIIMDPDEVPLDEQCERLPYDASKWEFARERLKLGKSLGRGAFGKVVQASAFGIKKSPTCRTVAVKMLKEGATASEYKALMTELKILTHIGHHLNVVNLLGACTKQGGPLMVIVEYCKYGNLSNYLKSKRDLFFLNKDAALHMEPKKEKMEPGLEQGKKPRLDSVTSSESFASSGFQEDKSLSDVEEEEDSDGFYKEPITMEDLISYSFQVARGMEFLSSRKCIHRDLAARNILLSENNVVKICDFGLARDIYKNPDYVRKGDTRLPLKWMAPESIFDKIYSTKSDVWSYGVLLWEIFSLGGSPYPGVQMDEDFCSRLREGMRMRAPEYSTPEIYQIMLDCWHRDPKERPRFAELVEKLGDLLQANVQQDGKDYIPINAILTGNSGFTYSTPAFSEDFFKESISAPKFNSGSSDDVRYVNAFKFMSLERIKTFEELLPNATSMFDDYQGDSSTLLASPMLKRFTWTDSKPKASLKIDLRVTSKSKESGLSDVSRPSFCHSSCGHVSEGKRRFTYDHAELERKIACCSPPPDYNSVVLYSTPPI
T4 sequence (P06241 whole entry): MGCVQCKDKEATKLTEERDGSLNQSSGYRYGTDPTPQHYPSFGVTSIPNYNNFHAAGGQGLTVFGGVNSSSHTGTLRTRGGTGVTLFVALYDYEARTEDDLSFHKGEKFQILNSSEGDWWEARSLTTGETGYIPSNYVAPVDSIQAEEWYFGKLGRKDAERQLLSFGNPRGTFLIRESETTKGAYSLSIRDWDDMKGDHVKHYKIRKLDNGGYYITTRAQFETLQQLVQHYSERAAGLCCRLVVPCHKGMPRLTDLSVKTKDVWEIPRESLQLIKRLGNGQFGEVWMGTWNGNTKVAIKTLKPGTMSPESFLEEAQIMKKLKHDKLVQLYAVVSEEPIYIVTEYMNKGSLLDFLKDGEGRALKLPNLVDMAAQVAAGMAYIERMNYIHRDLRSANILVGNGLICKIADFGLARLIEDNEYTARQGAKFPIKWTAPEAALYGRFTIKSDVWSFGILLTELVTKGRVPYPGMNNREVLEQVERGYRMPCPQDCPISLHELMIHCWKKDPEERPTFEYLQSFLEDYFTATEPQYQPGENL
T6 sequence (P27448 whole entry, species assumed): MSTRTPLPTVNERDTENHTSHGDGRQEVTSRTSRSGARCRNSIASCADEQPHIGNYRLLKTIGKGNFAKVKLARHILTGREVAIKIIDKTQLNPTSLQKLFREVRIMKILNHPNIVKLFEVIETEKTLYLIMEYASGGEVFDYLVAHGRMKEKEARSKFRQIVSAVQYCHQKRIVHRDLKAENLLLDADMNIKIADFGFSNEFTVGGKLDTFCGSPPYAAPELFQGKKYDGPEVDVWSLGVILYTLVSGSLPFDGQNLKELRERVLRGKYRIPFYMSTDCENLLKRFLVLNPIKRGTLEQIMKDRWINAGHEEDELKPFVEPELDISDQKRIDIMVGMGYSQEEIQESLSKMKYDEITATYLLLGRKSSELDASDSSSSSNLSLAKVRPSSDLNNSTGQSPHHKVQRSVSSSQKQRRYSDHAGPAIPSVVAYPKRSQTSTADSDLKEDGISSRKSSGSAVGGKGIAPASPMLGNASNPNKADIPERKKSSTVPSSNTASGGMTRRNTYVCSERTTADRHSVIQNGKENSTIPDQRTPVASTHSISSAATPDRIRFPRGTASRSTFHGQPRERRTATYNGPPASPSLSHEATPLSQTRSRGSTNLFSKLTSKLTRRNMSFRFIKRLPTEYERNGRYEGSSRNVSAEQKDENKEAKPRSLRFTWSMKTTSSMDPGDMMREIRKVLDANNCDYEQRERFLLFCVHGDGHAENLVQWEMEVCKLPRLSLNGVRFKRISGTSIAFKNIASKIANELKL

For the compound `C=CC(=O)N1CCCC(c2c(F)cc(C(N)=O)c3[nH]c4c(c23)CCCCC4)C1` (single isomer, unassigned) [Compound 5-6], the inhibition at 1 µM in assay [1] is -26.4%; in assay [2], 11.4%; in [3] it was 12.1%; in [4], 12%; in [5], 2.9%; in [6] it was 1.6%. In addition, the inhibition at 1 µM in assay [7] is -6.6%; in [8], 6.7%; in assay [9], 23.5%.
For `C=CC(=O)N1CCC[C@@H](c2c(F)cc(C(N)=O)c3[nH]c4c(c23)CC2(CC4)CC2)C1` [Compound 6-2, (S)-5-(1-acryloylpiperidin-3-yl)-6-fluoro-1,2,4,9-tetrahydrospiro[carbazole-3,1′-cyclopropane]-8-carboxamide], the inhibition at 1 µM in assay [1] is -10.4%; in assay [2], -141%; in assay [3], 20.7%; in assay [4] it was -5.2%; in [5] it was -5.1%; in assay [6], -10.6%. Moreover, the inhibition at 1 µM is -16% in assay [7], -49.1% in assay [8] and -4.3% in assay [9].
Take `C=CC(=O)N1CCC[C@@H](c2c(F)cc(C(N)=O)c3[nH]c4c(c23)CCC4)C1` [Compound 10-2, (S)-8-(1-acryloylpiperidin-3-yl)-7-fluoro-1,2,3,4-tetrahydrocyclo-penta[b]indole-5-carboxamide]: the inhibition at 1 µM in assay [1] was -11.1%; in [2] it was -144%; in assay [3] it was 8.6%; in assay [4] it was -24.6%; in [5], -37.7%; in [6], -90.5%. Also, the results for the inhibition at 1 µM in [7], in assay [8] and in assay [9] were -24.2%, -29.2% and -6%, respectively.
